Laboratory results taken from patent publication US20220144799A1, “PESTICIDALLY ACTIVE HETEROCYCLIC DERIVATIVES WITH SULFUR CONTAINING SUBSTITUENTS” (SYNGENTA CROP PROTECTION AG, priority 2019, published 2022).

Experiments:
Assay type in all cases: in vivo
[1] = tested on: Bemisia tabaci (Cotton White Fly); experiment: Activity against Bemisia tabaci (cotton white fly), sprayed cotton leaf discs; conditions: foliar, 144 h, application rate of 200 ppm, adult white flies, 6 days after incubation
Protocol: Example B1: Activity Against Bemisia tabaci (Cotton White Fly)
Cotton leaf discs were placed on agar in 24-well microtiter plates and sprayed with aqueous test solutions prepared from 10′000 ppm DMSO stock solutions. After drying the leaf discs were infested with adult white flies. The samples were checked for mortality 6 days after incubation.

[2] = tested on: Diabrotica Balteata (Corn Root Worm); experiment: Activity against Diabrotica balteata (corn root worm), sprayed maize sprouts; conditions: 96 h, application rate of 200 ppm, L2 larvae, 4 days after infestation, read-out: effect in at least one of the two categories (mortality or growth inhibition)
Protocol: Example B2: Activity Against Diabrotica Balteata (Corn Root Worm)
Maize sprouts placed onto an agar layer in 24-well microtiter plates were treated with aqueous test solutions prepared from 10′000 ppm DMSO stock solutions by spraying. After drying, the plates were infested with L2 larvae (6 to 10 per well). The samples were assessed for mortality and growth inhibition in comparison to untreated samples 4 days after infestation.
(§1) The following compounds gave an effect of at least 80% in at least one of the two categories (mortality or growth inhibition) at an application rate of 200 ppm: […]

[3] = tested on: Euschistus heros (Neotropical Brown Stink Bug); experiment: Activity against Euschistus heros (neotropical brown stink bug), sprayed soybean leaves; conditions: 120 h, application rate of 200 ppm, N2 nymphs, 5 days after infestation, read-out: effect in at least one of the two categories (mortality or growth inhibition)
Protocol: Example B3: Activity Against Euschistus heros (Neotropical Brown Stink Bug)
Soybean leaves on agar in 24-well microtiter plates were sprayed with aqueous test solutions prepared from 10′000 ppm DMSO stock solutions. After drying the leaves were infested with N2 nymphs. The samples were assessed for mortality and growth inhibition in comparison to untreated samples 5 days after infestation.
as §1

[4] = tested on: Plutella xylostella (Diamond Back Moth); experiment: Activity against Plutella xylostella (diamond back moth), treated artificial diet; conditions: 192 h, application rate of 200 ppm, Plutella eggs, 8 days after infestation, read-out: effect in at least one of the two categories (mortality or growth inhibition)
Protocol: Example B4: Activity Against Plutella xylostella (Diamond Back Moth)
24-well microtiter plates with artificial diet were treated with aqueous test solutions prepared from 10′000 ppm DMSO stock solutions by pipetting. After drying, Plutella eggs were pipetted through a plastic stencil onto a gel blotting paper and the plate was closed with it. The samples were assessed for mortality and growth inhibition in comparison to untreated samples 8 days after infestation.
as §1

[5] = tested on: Myzus persicae (Green Peach Aphid); experiment: Activity against Myzus persicae (green peach aphid), feeding/contact activity, sunflower leaf discs; conditions: foliar, 144 h, application rate of 200 ppm, aphid population of mixed ages, 6 days after infestation
Protocol: Example B5: Activity Against Myzus persicae (Green Peach Aphid) Feeding/Contact Activity
Sunflower leaf discs were placed onto agar in a 24-well microtiter plate and sprayed with aqueous test solutions prepared from 10′000 ppm DMSO stock solutions. After drying, the leaf discs were infested with an aphid population of mixed ages. The samples were assessed for mortality 6 days after infestation.

[6] = tested on: Myzus persicae (Green Peach Aphid); experiment: Activity against Myzus persicae (green peach aphid), systemic activity, pea seedling roots in test solution; conditions: 144 h, test rate of 24 ppm, aphid population of mixed ages, 6 days after placing seedlings into test solutions
Protocol: Example B6: Activity Against Myzus persicae (Green Peach Aphid) Systemic Activity
Roots of pea seedlings infested with an aphid population of mixed ages were placed directly into aqueous test solutions prepared from 10′000 DMSO stock solutions. The samples were assessed for mortality 6 days after placing seedlings into test solutions.

[7] = tested on: Spodoptera littoralis (Egyptian Cotton Leaf Worm); experiment: Activity against Spodoptera littoralis (Egyptian cotton leaf worm), sprayed cotton leaf discs; conditions: foliar, 72 h, application rate of 200 ppm, L1 larvae, 3 days after infestation
Protocol: Example B7: Activity Against Spodoptera littoralis (Egyptian Cotton Leaf Worm)
Cotton leaf discs were placed onto agar in 24-well microtiter plates and sprayed with aqueous test solutions prepared from 10′000 ppm DMSO stock solutions. After drying the leaf discs were infested with five L1 larvae. The samples were assessed for mortality, anti-feeding effect, and growth inhibition in comparison to untreated samples 3 days after infestation. Control of Spodoptera littoralis by a test sample is given when at least one of the categories mortality, anti-feedant effect, and growth inhibition is higher than the untreated sample.

CCSc1cccnc1-c1ncc(OCC(F)(F)C(F)(F)F)c(=O)n1C [Compound P1, 2-(3-ethylsulfanyl-2-pyridyl)-3-methyl-5-(2,2,3,3,3-pentafluoro-propoxy)pyrimidin-4-one]
≥ 80%: mortality at 200 ppm [1] | percent effect (mortality or growth inhibition) at 200 ppm [2] | percent effect (mortality or growth inhibition) at 200 ppm [3] | percent effect (mortality or growth inhibition) at 200 ppm [4] | mortality at 200 ppm [5] | mortality at 24 ppm [6]

CCS(=O)(=O)c1ccc(-n2cncn2)nc1-c1ncc(OCC(F)(F)C(F)(F)F)c(=O)n1C [Compound P14, 2-[3-ethylsulfonyl-6-(1,2,4-triazol-1-yl)-2-pyridyl]-3-methyl-5-(2,2,3,3,3-pentafluoropropoxy) pyrimidin-4-one]
≥ 80%: mortality at 200 ppm [1] | percent effect (mortality or growth inhibition) at 200 ppm [2] | percent effect (mortality or growth inhibition) at 200 ppm [3] | percent effect (mortality or growth inhibition) at 200 ppm [4] | mortality at 200 ppm [5] | mortality at 24 ppm [6] | percent control (mortality, anti-feedant effect or growth inhibition) at 200 ppm [7]

CCS(=O)(=O)c1cccnc1-c1ncc(OCC(F)(F)C(F)(F)F)c(=O)n1C [Compound P2, 2-(3-ethylsulfonyl-2-pyridyl)-3-methyl-5-(2,2,3,3,3-pentafluoro-propoxy)pyrimidin-4-one]
≥ 80%: mortality at 200 ppm [1] | percent effect (mortality or growth inhibition) at 200 ppm [2] | percent effect (mortality or growth inhibition) at 200 ppm [3] | percent effect (mortality or growth inhibition) at 200 ppm [4] | mortality at 200 ppm [5] | mortality at 24 ppm [6] | percent control (mortality, anti-feedant effect or growth inhibition) at 200 ppm [7]

CCS(=O)(=O)c1cc(C2(C#N)CC2)cnc1-c1ncc(OCC(F)(F)C(F)(F)F)c(=O)n1C [Compound P11, 1-[5-ethylsulfonyl-6-[1-methyl-6-oxo-5-(2,2,3,3,3-pentafluoropropoxy)-pyrimidin-2-yl]-3-pyridyl]cyclopropanecarbonitrile]
≥ 80%: mortality at 200 ppm [1] | percent effect (mortality or growth inhibition) at 200 ppm [2] | percent effect (mortality or growth inhibition) at 200 ppm [3] | percent effect (mortality or growth inhibition) at 200 ppm [4] | mortality at 200 ppm [5] | mortality at 24 ppm [6] | percent control (mortality, anti-feedant effect or growth inhibition) at 200 ppm [7]

CCS(=O)(=O)c1cc(Oc2ccccn2)cnc1-c1ncc(OCC(F)(F)C(F)(F)F)c(=O)n1C [Compound P20, 2-[3-ethylsulfonyl-5-(2-pyridyloxy)-2-pyridyl]-3-methyl-5-(2,2,3,3,3-pentafluoropropoxy) pyrimidin-4-one]
≥ 80%: percent effect (mortality or growth inhibition) at 200 ppm [2] | percent effect (mortality or growth inhibition) at 200 ppm [3] | percent effect (mortality or growth inhibition) at 200 ppm [4] | mortality at 200 ppm [5] | mortality at 24 ppm [6] | percent control (mortality, anti-feedant effect or growth inhibition) at 200 ppm [7]

CCS(=O)(=O)c1ccc(N(C)C(=O)C2CC2)nc1-c1ncc(OCC(F)(F)C(F)(F)F)c(=O)n1C [Compound P16, N-[5-ethylsulfonyl-6-[1-methyl-6-oxo-5-(2,2,3,3,3-pentafluoropropoxy)pyrimidin-2-yl]-2-pyridyl]-N-methyl-cyclo-propanecarboxamide]
≥ 80%: mortality at 200 ppm [1] | percent effect (mortality or growth inhibition) at 200 ppm [2] | percent effect (mortality or growth inhibition) at 200 ppm [3] | percent effect (mortality or growth inhibition) at 200 ppm [4] | mortality at 200 ppm [5] | mortality at 24 ppm [6] | percent control (mortality, anti-feedant effect or growth inhibition) at 200 ppm [7]

CCS(=O)(=O)c1ccc(N(C)C(C)=O)nc1-c1ncc(OCC(F)(F)C(F)(F)F)c(=O)n1C [Compound P9, N-[5-ethylsulfonyl-6-[1-methyl-6-oxo-5-(2,2,3,3,3-pentafluoropropoxy)-pyrimidin-2-yl]-2-pyridyl]-N-methyl-acetamide]
≥ 80%: mortality at 200 ppm [1] | percent effect (mortality or growth inhibition) at 200 ppm [2] | percent effect (mortality or growth inhibition) at 200 ppm [4] | mortality at 200 ppm [5] | mortality at 24 ppm [6]

CCS(=O)(=O)c1ccc(N(C)C(=O)NC)nc1-c1ncc(OCC(F)(F)C(F)(F)F)c(=O)n1C [Compound P15, 1-[5-ethylsulfonyl-6-[1-methyl-6-oxo-5-(2,2,3,3,3-pentafluoropropoxy)pyrimidin-2-yl]-2-pyridyl]-1,3-dimethyl-urea]
≥ 80%: percent effect (mortality or growth inhibition) at 200 ppm [3] | mortality at 200 ppm [5] | mortality at 24 ppm [6]

CCS(=O)(=O)c1cc(C(C)(C)C#N)cnc1-c1ncc(OCC(F)(F)C(F)(F)F)c(=O)n1C [Compound P13, 2-[5-ethylsulfonyl-6-[1-methyl-6-oxo-5-(2,2,3,3,3-pentafluoropropoxy)pyrimidin-2-yl]-3-pyridyl]-2-methyl-propanenitrile]
≥ 80%: mortality at 200 ppm [1] | percent effect (mortality or growth inhibition) at 200 ppm [2] | percent effect (mortality or growth inhibition) at 200 ppm [3] | percent effect (mortality or growth inhibition) at 200 ppm [4] | mortality at 24 ppm [6] | percent control (mortality, anti-feedant effect or growth inhibition) at 200 ppm [7]

CCS(=O)(=O)c1cc(C2CC2)cnc1-c1ncc(OCC(F)(F)C(F)(F)F)c(=O)n1C [Compound P18, 2-(5-cyclopropyl-3-ethylsulfonyl-2-pyridyl)-3-methyl-5-(2,2,3,3,3-pentafluoropropoxy) pyrimidin-4-one]
≥ 80%: percent effect (mortality or growth inhibition) at 200 ppm [2] | percent effect (mortality or growth inhibition) at 200 ppm [3] | percent effect (mortality or growth inhibition) at 200 ppm [4] | mortality at 200 ppm [5] | mortality at 24 ppm [6] | percent control (mortality, anti-feedant effect or growth inhibition) at 200 ppm [7]

CCS(=O)(=O)c1cc(N(C)C(C)=O)cnc1-c1ncc(OCC(F)(F)C(F)(F)F)c(=O)n1C [Compound P5, N-[5-ethylsulfonyl-6-[1-methyl-6-oxo-5-(2,2,3,3,3-pentafluoropropoxy)-pyrimidin-2-yl]-3-pyridyl]-N-methyl-acetamide]
≥ 80%: percent effect (mortality or growth inhibition) at 200 ppm [2] | percent effect (mortality or growth inhibition) at 200 ppm [3] | percent effect (mortality or growth inhibition) at 200 ppm [4] | mortality at 200 ppm [5] | mortality at 24 ppm [6]
